The results in this text go back to patent US8440652B2, “MST1 kinase inhibitors and methods of their use” (Lexicon Pharmaceuticals, Inc., priority 2011, dated 2013).

Where two headings read alike, the source gives them in different places. Where only a bound is given, the exact number is not on record here.

The subject of one test is rat EAE model. Kind of test: Rat EAE disease model. The class given is in vivo.
The subject of test [1] is Con-A induced hepatitis model. Kind of test: Con-A induced hepatitis model. Format: in vivo, mouse. Here is the method:
This model was generally conducted as follows. C57Bl/6-Albino/129SvEv mice were injected intravenously (i/v) via the lateral tail vein with a single sublethal dose of Concanavalin A from Canavalia ensiformis (Jack bean, Type IV-S, lyophilized powder, aseptically processed; Sigma) administered at 10-16 mg/kg mouse body weight in a total volume of 0.1-0.3 ml of pyrogen-free PBS. The tail vein injections of mice restrained in a Plexiglas mouse restrainer were performed without anesthesia, using a 1 ml syringe with a 27 gauge needle. At six and 24 hr post-injection, blood samples were collected by retro-orbital bleeding. The animals were sacrificed and sera from the blood samples were analyzed for the presence of IL-12, TNF-α, MCP-1, IFN-γ, IL-10, and IL-6 using a mouse inflammation cytometric bead array (CBA) kit (BD Biosciences, Mountain View, Calif.), according to the manufacturer's instructions. Data were acquired with a FACSCalibur flow cytometer and analyzed with BD CBA Software (BD Biosciences). Biochemical markers of liver failure were assessed by measuring serum liver damage enzymes, aspartate aminotransferase (AST) and alanine aminotransferase (ALT), using a standard clinical biochemical analyzer. Livers of ConA-treated mice were sectioned and stained with H&E to evaluate the degree of T cell-mediated immune inflammation.

The next test relates to rat CIA disease model. Kind of test: Rat CIA disease model. The class given is in vivo. The note with it: rats, 10 and 25 mg/kg PO BID, 50 mg/kg QD from Day 11 after immunization; FIG. 5. Here is the method: CIA was elicited in rats according to Rosloniec, E. F., et al., Curr Protoc Immunol Chapter 15: Unit 15, pp. 11-25. Here, Lewis rats (150-200 g, female; Charles River Laboratories, Wilmington, Mass.) were injected intradermally at the base of the tail with a total of 300 μl of a 1:1 emulsion of bovine type II collagen (CII; 150 μg total; Sigma-Aldrich) and incomplete Freund's adjuvant (IFA; 150 μl total; Sigma-Aldrich), followed by a repeat booster injection of the same emulsion 7 days after the primary immunization. Rats were monitored for signs of arthritis by clinical scoring (visual observation) of each rat paw, using the rating scale described above. The extent of swelling was calculated by subtracting the baseline values of the first measurement from the values of subsequent measurements.

The target of another test is T1, MST1 (Homo sapiens, UniProt Q13043).
T1 sequence (Q13043 1-487): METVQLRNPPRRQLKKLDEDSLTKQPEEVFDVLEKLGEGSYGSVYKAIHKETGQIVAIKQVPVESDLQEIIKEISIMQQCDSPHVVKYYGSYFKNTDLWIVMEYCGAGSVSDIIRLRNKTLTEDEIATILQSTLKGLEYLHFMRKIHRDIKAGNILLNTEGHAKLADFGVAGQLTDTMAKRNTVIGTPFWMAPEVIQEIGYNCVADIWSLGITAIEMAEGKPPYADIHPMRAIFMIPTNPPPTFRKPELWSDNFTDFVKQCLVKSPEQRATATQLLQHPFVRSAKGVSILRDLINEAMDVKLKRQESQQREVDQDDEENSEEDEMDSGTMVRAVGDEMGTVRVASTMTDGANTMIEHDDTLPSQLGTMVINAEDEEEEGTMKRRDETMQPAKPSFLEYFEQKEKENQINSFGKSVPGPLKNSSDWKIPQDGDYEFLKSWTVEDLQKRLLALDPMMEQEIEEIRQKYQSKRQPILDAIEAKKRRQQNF
In words: In vitro measurement of MST1 inhibition (Z′-Lyte kinase assay). Format: biochemical.

The test system of a further test is mouse CIA disease model. Kind of test: Mouse CIA disease model. The class given is in vivo. The note with it: mice, 10, 30, 100 mg/kg PO bid 21 days from Day 20 after immunization; FIG. 4. Here is the method: Eight to 16 weeks old DBA/1 mice were immunized intradermally (i.d.) at several sites into the base of the tail with 100 μg of chicken type II collagen (CII; Sigma Chemical Co.) in Freund's complete adjuvant (CFA; Difco, Detroit, Mich.) containing 2.5 mg/ml M. tuberculosis, followed by a repeat booster i.d. injection of CII (100 μg emulsified in CFA) given 3 weeks after the primary immunization. Mice were monitored daily for signs of arthritis, and disease severity scores were assessed by a visual scoring of 0 to 4 according to the following scale: 0=no erythema and swelling; 1=erythema and mild swelling of the mid-foot or ankle joint; 2=erythema and mild swelling extending from the ankle to the mid-foot; 3=erythema and moderate swelling extending from the ankle to the metatarsal joints; 4=erythema and severe swelling of the ankle, foot, and digits. Total disease severity scores were recorded as a sum of visual scores for four limbs. In addition to visual scoring, paw thickness was measured with a micrometer caliper.

[2] abbreviates: 1 μM ATP, read-out: IC50 (μM) 1 μM ATP.
The mark [3] stands for this setting: 50 μM ATP, read-out: IC50 (μM) 50 μM ATP.

With `CN(C1CC1)S(=O)(=O)c1ccc(-c2cnc(N)c(-c3ccc4c(c3)CCNC4=O)c2)cc1` [4-(6-amino-5-(1-oxo-1,2,3,4-tetrahydroisoquinolin-6-yl)pyridin-3-yl)-N-cyclopropyl-N-methylbenzenesulfonamide], in the test with rat EAE model (rats, 10, 25 or 50 mg/kg PO BID from Day 9 after immunization, FIG. 3), the “severity of clinical score” value is on record as “dose-dependent reduction in severity of clinical score”. Besides, in test [1] (mice, 10, 30, 100 mg/kg dosed 16 h and 1 h before and 8 h after Con-A challenge, FIG. 6), the “TNF-α, IL-6, MCP-1, IFN-γ, ALT and AST” value is given as “clear effect”. Further, the “cumulative arthritis score and change in ankle thickness” value with rat CIA disease model is listed as “therapeutic effect”; with mouse CIA disease model it was “clear benefit versus control”. Besides, the IC50 on MST1 (setting [2]) and on MST1 (setting [3]) was less than 0.01 µM throughout.
For the compound `N#CC1(c2ccc(-c3cnc(N)c(-c4ccc5c(c4)CCNC5=O)n3)cc2)CC1` [1-(4-(5-amino-6-(1-oxo-1,2,3,4-tetrahydroisoquinolin-6-yl)pyrazin-2-yl)phenyl)cyclopropanecarbonitrile], in the test on rat EAE model (rats, 0.3, 1, 3 or 10 mg/kg PO QD from Day 10 after immunization, FIG. 7A), the “severity of clinical score” value is listed as “dose-dependent reduction in severity of clinical score”. Moreover, in test [1] (mice, 1, 3, 10, 30 mg/kg PO 16 h and 1 h before and 8 h after Con-A challenge, FIG. 8), the “TNF-α, IL-6, MCP-1, IFN-γ, ALT and AST” value is “clear effect”. Besides, the IC50 (in general, the concentration that inhibits the measured activity by half) on MST1 (setting [2]) was less than 0.05 µM; at MST1 (setting [3]), less than 0.01 µM.
On to `CCN(C)S(=O)(=O)c1ccc(-c2cnc(N)c(-c3ccc4c(c3)CCNC4=O)n2)cc1` [4-(5-amino-6-(1-oxo-1,2,3,4-tetrahydroisoquinolin-6-yl)pyrazin-2-yl)-N-ethyl-N-methylbenzenesulfonamide], for which the half-maximal inhibitory concentration (IC50) on MST1 (setting [2]) and on MST1 (setting [3]) was less than 0.01 µM throughout.
For the compound `CC1(C)CNC(=O)c2ccc(-c3nc(-c4ccc(C5(C#N)CCOCC5)cc4)cnc3N)cc21` [4-(4-(5-amino-6-(4,4-dimethyl-1-oxo-1,2,3,4-tetrahydroisoquinolin-6-yl)pyrazin-2-yl)phenyl)tetrahydro-2H-pyran-4-carbonitrile], the half-inhibitory concentration (IC50) at MST1 (setting [2]) and on MST1 (setting [3]) was less than 0.01 µM throughout.
Regarding `CNC1(c2ccc(-c3cnc(N)c(-c4ccc5c(c4)CCNC5=O)n3)cc2)CC1` [6-(3-amino-6-(4-(1-(methylamino)cyclopropyl)phenyl)pyrazin-2-yl)-3,4-dihydroisoquinolin-1(2H)-one], the IC50 at MST1 (setting [2]) and on MST1 (setting [3]) was less than 0.01 µM throughout.
Turning to `[2H]C([2H])([2H])N(C1CC1)S(=O)(=O)c1ccc(-c2cnc(N)c(-c3ccc4c(c3)CCNC4=O)n2)cc1` [4-(5-amino-6-(1-oxo-1,2,3,4-tetrahydroisoquinolin-6-yl)pyrazin-2-yl)-N-cyclopropyl-N-trideuteromethylbenzenesulfonamide], the IC50 on MST1 (setting [2]) and on MST1 (setting [3]) was less than 0.01 µM throughout.
On to `CCN(C)S(=O)(=O)c1ccc(-c2cnc(N)c(-c3ccc4c(c3)CCNC4=O)c2)nc1` [6′-amino-N-ethyl-N-methyl-5′-(1-oxo-1,2,3,4-tetrahydroisoquinolin-6-yl)-[2,3′-bipyridine]-5-sulfonamide], for which the 50% inhibitory concentration (IC50) at MST1 (setting [2]) and on MST1 (setting [3]) was less than 0.01 µM in each case.
`Nc1ncc(-c2ccc(F)cc2)cc1-c1cc2c(cn1)C(=O)NCC2` [6-(2-amino-5-(4-fluorophenyl)pyridin-3-yl)-3,4-dihydro-2,7-naphthyridin-1(2H)-one]: the half-inhibitory concentration (IC50) at MST1 (setting [2]) and on MST1 (setting [3]) was less than 0.05 µM in each case.
Consider `CCOC(=O)Cc1ccc(-c2cnc(N)c(-c3ccc4c(c3)CCNC4=O)n2)cc1` [ethyl 2-(4-(5-amino-6-(1-oxo-1,2,3,4-tetrahydroisoquinolin-6-yl)pyrazin-2-yl)phenyl)acetate], for which the IC50 was less than 0.15 µM on MST1 (setting [2]) and less than 0.05 µM at MST1 (setting [3]).
On to `Nc1ncc(-c2ccc(S(F)(F)(F)(F)F)cc2)nc1-c1ccc2c(c1)CCNC2=O` [6-(3-amino-6-(4-(pentafluorosulfanyl)phenyl)pyrazin-2-yl)-3,4-dihydroisoquinolin-1(2H)-one], for which the IC50 at MST1 (setting [2]) was less than 0.15 µM; on MST1 (setting [3]) it was less than 0.05 µM.
As to `NC(=O)c1ccc(-c2cc(-c3ccc(-n4ccnc4)cc3)cnc2N)cc1` [4-(5-(4-(1H-imidazol-1-yl)phenyl)-2-aminopyridin-3-yl)benzamide], at MST1 (setting [3]), the IC50 is less than 0.15 µM.
As for `C[C@H]1CNc2cc(-c3cc(-c4ccc(S(=O)(=O)N(C)C5CC5)cc4)cnc3N)ccc2C(=O)N1` [(S)-4-(6-amino-5-(3-methyl-5-oxo-2,3,4,5-tetrahydro-1H-benzo[e][1,4]diazepin-8-yl)pyridin-3-yl)-N-cyclopropyl-N-methylbenzenesulfonamide], the IC50 on MST1 (setting [2]) and on MST1 (setting [3]) was less than 0.01 µM throughout.
Take `NCC1CCC(NC(=O)c2nc(-c3ccc(S(=O)(=O)NC4CC4)cc3)cnc2N)CC1` (centres unmarked) [3-amino-N-(4-(aminomethyl)cyclohexyl)-6-(4-(N-cyclopropylsulfamoyl)phenyl)pyrazine-2-carboxamide]: the IC50 was less than 0.05 µM on MST1 (setting [2]) and less than 0.01 µM on MST1 (setting [3]).
`O=C1NCCc2cc(-c3c[nH]c4ncc(-c5ccc(S(=O)(=O)NC6CC6)cc5)cc34)ccc21` [N-cyclopropyl-4-(3-(1-oxo-1,2,3,4-tetrahydroisoquinolin-6-yl)-1H-pyrrolo[2,3-b]pyridin-5-yl)benzenesulfonamide]: the IC50 is less than 0.05 µM on MST1 (setting [2]) and less than 0.01 µM on MST1 (setting [3]).
As to `Nc1ncc(-c2ccc(F)cc2)nc1-c1cc2c(cn1)C(=O)NCC2` [6-(3-amino-6-(4-fluorophenyl)pyrazin-2-yl)-3,4-dihydro-2,7-naphthyridin-1(2H)-one], the IC50 at MST1 (setting [2]) and at MST1 (setting [3]) was less than 0.01 µM each time.
As for `N#CC1(c2ccc(-c3cnc(N)c(-c4ccc5c(c4)CCNC5=O)c3)cc2)CC1` [1-(4-(6-amino-5-(1-oxo-1,2,3,4-tetrahydroisoquinolin-6-yl)pyridin-3-yl)phenyl)cyclopropanecarbonitrile], the IC50 at MST1 (setting [2]) and on MST1 (setting [3]) was less than 0.05 µM each time.
In the case of `Nc1ncc(-c2ccc(S(=O)(=O)NC3CC3)cc2)cc1-c1ccc2c(c1)C1(CC1)NC2=O` [4-(6-amino-5-(3′-oxospiro[cyclopropane-1,1′-isoindolin]-6′-yl)pyridin-3-yl)-N-cyclopropylbenzenesulfonamide], the IC50 on MST1 (setting [2]) and on MST1 (setting [3]) was less than 0.01 µM in each case.
Turning to `CCS(=O)(=O)Nc1ccc(-c2cnc(N)c(-c3ccc4c(c3)CCNC4=O)c2)cc1` [N-(4-(6-amino-5-(1-oxo-1,2,3,4-tetrahydroisoquinolin-6-yl)pyridin-3-yl)phenyl)ethanesulfonamide], the figures for the half-maximal inhibitory concentration (IC50) at MST1 (setting [2]) and at MST1 (setting [3]) were less than 0.05 µM and less than 0.01 µM, respectively.
